Earlier results as cited in patent publication US11458199B2, “Liposome formulations” (OPKO Pharmaceuticals, LLC, priority 2012, dated 2022).

Experiments:
[1] = test system: PCME; conditions: retrospective study, prevention of PCME after cataract surgery
[2] = target: VEGF; conditions: read-out: binding affinity to VEGF (Kd)
Sequence of VEGF (P15692 214-315 limits assumed): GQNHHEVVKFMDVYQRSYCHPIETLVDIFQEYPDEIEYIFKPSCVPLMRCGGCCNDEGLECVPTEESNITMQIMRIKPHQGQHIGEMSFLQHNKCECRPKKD

Row | Kd [2] [nM] | Compound | postoperative rate of macular edema [1] [%]
1 |  | C[C@@H]1C[C@H]2[C@@H]3CCC4=CC(=O)C=C[C@]4(C)[C@@]3(F)[C@@H](O)C[C@]2(C)[C@@]1(O)C(=O)COP(=O)(O)O [dexamethasone sodium phosphate 0.1%, dexamethasone sodium phosphate] | 4.1
2 |  | CC(=O)OCC(=O)[C@@]1(O)CC[C@H]2[C@@H]3CCC4=CC(=O)C=C[C@]4(C)[C@H]3[C@@H](O)C[C@@]21C [prednisolone acetate 1%, prednisolone acetate] | 4.0
3 | ~0.14 | Ranibizumab: recombinant humanized IgG1 kappa isotype monoclonal antibody fragment that binds VEGF-A | 
